# According to patent US7279336B2, “Methods and compositions for enhanced plant cell transformation” (priority 2002, dated 2007):
# Legend:
# [1] = tested on: immature zygotic embryos of the maize hybrid line Hi II; experiment: Agrobacterium tumefaciens (EHA101, standard binary vector pTF102) transformation of maize Hi II immature zygotic embryos
# Description: A. tumefaciens strain EHA101 (Hood et al., 1986) containing the standard binary vector pTF102 (12.1 kb) was used in all experiments. […] This vector system, pTF 102 in EHA 101, was maintained on yeast extract peptone (YEP) medium (An et al., 1988) containing 100 mg/L spectinomycin (for pTF102) and 50 mg/L kanamycin (for EHA101). Bacteria cultures for weekly experiments were initiated from stock plates that were stored for up to 1 month at 4° C. before being refreshed from long-term, 80° C. glycerol stocks. In all experiments, bacteria cell densities were adjusted to an optical density (OD550) between 0.35 to 0.45 using a spectrophotometer immediately before embryo infection.
# F2 immature zygotic embryos (1.5-2.0 mm) of the maize (Zea mays) Hi II hybrid genotype (Armstrong et al., 1991) were aseptically dissected from greenhouse-grown ears harvested 10 to 13 d post pollination. Ears were stored up to 3 d at 4° C. before dissection.
# Infection, cocultivation, resting, and selection media were after Zhao et al. (1999) except that cocultivation medium was modified to contain Cys. All these media contained N6 salts and vitamins (Chu et al., 1975), 1.5 mg/L 2,4-dichlorophenoxyacetic acid, and 0.7 g L1 L-Pro in addition to the following ingredients: infection medium contained 68.4 g/L Suc and 36 g/L Glc (pH 5.2) and was supplemented with 100 μM AS (Sigma, St. Louis) before use; cocultivation medium contained 30 g/L Suc, 0.85 mg/L silver nitrate, 100 μM AS, and 3 g/L gelrite (pH 5.8); resting medium contained 30 g/L Suc, 0.5 g/L MES, 0.85 mg/L silver nitrate, 250 mg/L cefotaxime, and 8 g/L purified agar (pH 5.8). Selection medium was identical to resting medium with the addition of 1.5 or 3 mg/L bialaphos (Shinyo Sanyo, Tokyo). Infection medium was filter sterilized, whereas all other media were autoclaved. AS stock solutions (100 mM) were prepared by dissolving AS in 100% (v/v) dimethyl sulfoxide (DMSO) to make a 200 mM stock which was then diluted (1:1 [v/v]) with sterile water and stored in small aliquots at 20° C. Cys was added to cocultivation medium after autoclaving from freshly prepared, filter-sterilized stocks (100 mg/mL) and cocultivation medium was used within 2 to 5 d of preparation. Regeneration I medium contained Murashige and Skoog salts and vitamins (Murashige and Skoog, 1962), 60 g/L Suc, 100 mg/L myo-inositol, no hormones, and 3 g/L gelrite (pH 5.8) after Armstrong and Green (1985). Cefotaxime (250 mg/L) and bialaphos (3 mg/L) were added to this medium after autoclaving. Regeneration II medium differed from medium I in that it contained 30 g/L Suc and no bialaphos.
# maize immature embryos = experiment: Maize transformation experiments with control or histone H2A-1 T-DNA binary vector, with or without anti-oxidant; type: cell-based
# Text: 2. Kan Wang at the Plant Transformation Facility, Iowa State University tested for the present invention in two different Agrobacterium strains. One contains a T-DNA binary vector with a herbicide resistance gene in the T-DNA (this is the control construction)1. The other strain contains a similar T-DAN binary vector, but in addition to the herbicide resistance gene the T-DNA contains the Arabidopsis histone H2A-1 cDNA under the control of maize adh1 promoter and intron. These strains were used in four rounds of maize transformation experiments. […] Several thousand transformations (using the control vector without the histone gene) produced virtually no transformants. In these experiments, there were no transformants (using the control strain) without L-cysteine.
# Japonica rice explants = conditions: 80 mg/L Cys; cited from earlier work
smiles,measurement,setting,value
N[C@@H](CS)C(=O)O [L-cysteine],T-DNA delivery to embryogenic-competent scutellum cells of infected embryos,[1]; 400 mg/L Cys in cocultivation medium,increased
same,stable transformation rates,"[1]; Cys as low as 100 mg/L, compared with 400 mg/L, better embryo recovery",Comparable
same,transient glucuronidase expression in targeted cells,"[1]; L-cysteine in cocultivation medium, 400 mg/L",improvement
same,embryo response after cocultivation,"[1]; L-cysteine in cocultivation medium, 400 mg/L vs 0 mg/L",decrease
same,infected immature embryos giving transformants,"maize immature embryos; control vector without histone gene, with L-cysteine, no transformants without L-cysteine",2-3%
same,transformation,maize immature embryos; histone gene vector and L-cysteine,2-3%
same,impact on embryogenesis,Japonica rice explants,negative impact
